In BindingDB's records for doi:10.1016/j.bmcl.2010.05.078 (University of Arizona, 2010):

Columns and labels:
[1] = Agonist activity at mu opioid receptor in guinea pig ileum assessed as inhibition of electrically-stimulated muscle contraction
Melanocortin receptor 4 = Melanocortin receptor 4 (Homo sapiens, UniProt P32245); assay: Displacement of Eu-NDP-alphaMSH from human MC4 receptor expressed in human HEK293 cells
Melanocortin receptor 4, sequence (P32245 whole entry): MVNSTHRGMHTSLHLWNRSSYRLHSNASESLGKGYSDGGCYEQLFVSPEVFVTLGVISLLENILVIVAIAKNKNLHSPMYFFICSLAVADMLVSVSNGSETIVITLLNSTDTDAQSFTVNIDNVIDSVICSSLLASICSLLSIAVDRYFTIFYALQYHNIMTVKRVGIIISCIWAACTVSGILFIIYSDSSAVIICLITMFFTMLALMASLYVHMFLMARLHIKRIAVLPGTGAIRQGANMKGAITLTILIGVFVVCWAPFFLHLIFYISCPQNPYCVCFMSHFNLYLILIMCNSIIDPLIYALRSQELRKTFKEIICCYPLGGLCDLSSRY

| SMILES | IC50 [1] [µM] | IC50 (Melanocortin receptor 4) [µM] |
| --- | --- | --- |
| Cc1cc(O)cc(C)c1C[C@H](N)C(=O)N1CC(=O)N[C@@H](Cc2cnc[nH]2)C(=O)N[C@H](Cc2ccccc2)C(=O)N[C@@H](CCCN=C(N)N)C(=O)N[C@@H](Cc2c[nH]c3ccccc23)C(=O)N[C@H](C(=O)N[C@@H](CC(=O)O)C(=O)N[C@@H](Cc2ccccc2)C(N)=O)CSSC[C@@H](N)C1=O [(S)-3-((4R,7S,10S,13R,16S,22S)-16-((1H-imidazol-5-yl)methyl)-7-((1H-indol-3-yl)methyl)-22-amino-20-((S)-2-amino-3-(4-hydroxy-2,6-dimethylphenyl)propanoyl)-13-benzyl-10-(3-guanidinopropyl)-6,9,12,15,18,21-hexaoxo-1,2-dithia-5,8,11,14,17,20-hexaazacyclotricosane-4-carboxamido)-4-((S)-1-amino-1-oxo-3-phenylpropan-2-ylamino)-4-oxobutanoic acid] | 0.19 |  |
| CCCC[C@H](NC(=O)[C@H](Cc1c[nH]c2ccccc12)NC(=O)[C@H](CCCN=C(N)N)NC(=O)[C@@H](Cc1ccc2ccccc2c1)NC(=O)[C@H](Cc1cnc[nH]1)NC(=O)[C@H](Cc1ccccc1)NC(=O)[C@@H](C)NC(=O)[C@@H](N)Cc1ccc(O)cc1)C(=O)N[C@@H](CC(=O)O)C(=O)N[C@@H](Cc1ccccc1)C(N)=O [(3S,6S,9S,12S,15R,18S,21S,24R,27S)-18-((1H-imidazol-5-yl)methyl)-9-((1H-indol-3-yl)methyl)-27-amino-3-((S)-1-amino-1-oxo-3-phenylpropan-2-ylcarbamoyl)-21-benzyl-6-butyl-12-(3-guanidinopropyl)-28-(4-hydroxyphenyl)-24-methyl-15-(naphthalen-2-ylmethyl)-5,8,11,14,17,20,23,26-octaoxo-4,7,10,13,16,19,22,25-octaazaoctacosan-1-oic acid] |  | 0.631 |
